The text below walks through data of patent publication US6703362B1, “Random peptides that bind to gastro-intestinal tract (GIT) transport receptors and related methods” (Cytogen Corporation, priority 1997, dated 2004).

In general, amount remaining refers to the share of the starting amount still present when the sample was taken.

Square brackets hold non-standard residues; d marks the D form. Peptide text beside a SMILES is read from it. * marks the point of attachment. Dansyl = CN(C)c1cccc2c(S(=O)(=O)*)cccc12

One series concerns fixed Caco-2 cells. Briefly: Inhibition of GST-peptide fusion binding to fixed Caco-2 cells by synthetic peptides. As to conditions: peptide from 100 μg/ml serially diluted; GST fusion 10 μg. The text has this: Caco-2 cells were fixed, treated with phenylhydrazine and blocked as described above. […] GST-PAX2 binding was inhibited by ZElan032, ZElan033, and ZElan035.
Series [1] is described as follows: Peptide stability in simulated intestinal fluid (SIF). Format: in vitro ADME. The following applies: for Rel. Stab.: rank, 1 = most stable to SIF; for remaining at 1 min, 1 mg/ml / remaining at 1 h, 1 mg/ml / remaining at 3 h, 1 mg/ml / remaining at 24 h, 1 mg/ml: simulated intestinal fluid (pancreatin), pH 7.5, 10,000 fold diluted SIF, 37° C.; for remaining at 1 min, 1 mg/ml: read-out: Percent Remaining at: 1 m; for remaining at 1 h, 1 mg/ml: read-out: Percent Remaining at: 1 h; for remaining at 3 h, 1 mg/ml: read-out: Percent Remaining at: 3 h; for remaining at 24 h, 1 mg/ml: read-out: Percent Remaining at: 24 h. As to the method:
The relative stability for ZElanO3l, ZElanO53 and ZElan054 was determined in simulated intestinal fluid (SIF) SIF was made by dissolving 100 mg of pancreatin (Sigma cat#P-1625, lot# 122H0812)in 8.4 ml of phosphate stock solution, adjusting the pH to 7.5 with 0.2N NaOH and adjusting the volume to 10 ml with water.
Peptide (3.25 mg) was dissolved in 3.25 ml of 10,000 fold diluted SIF solution at 37° C. Aliquots (0.7 ml) of the digestion solution were then withdrawn at <1 min, 1 h, 3 h, and 21 h or 24 h. The samples were quickly passed through a syringe filter (Millipore Millex-GV 0.22 μm, part# SLGV025LS, lot# H2BM95250) and 300 μL of the filtered solution was immediately injected onto a Hewlett-Packard HPLC system equipped with a C-8 column (Applied Biosystems column and guard column: column-p/n 0711-0023 Spheri-5 ODS 5 μm, 220×4.6 mm). The products were eluted at 1.5 ml/min using an acetonitrile-water gradient. The major fluorescent peaks were collected, lyopholized and identified by MS analysis.

In series [2] the test system is P100 membrane fraction derived from Caco-2 cells. Briefly: GST-PAX2 peptides relative binding to P100 fractions (ratio to GST-HAX42). The following applies: 20 μg/ml GST-peptide; binding to plastic subtracted; GST-HAX42 = 1.00. As to the method:
The peptides and proteins were analyzed by a dansylated peptide ELISA method in which 96 well plates were coated overnight at 4° C. with 100 μl/well coating protein (normally 100 μg/ml P100 membrane fraction) in 0.05M carbonate buffer pH9.6. Nonspecific binding was blocked using 200 μl/well, 2% Marvel/PBS for 2 hours at 37° C. prior to incubation with dansylated peptides. The plates were washed three times with PBS/0.05% Tween 20 and after each subsequent incubation step. […] A buffer blank control was included to ensure that background binding to plastic was not due to the antibodies used in the assay system. […] The plates were then incubated with an anti-mouse X-HRP conjugated antibody (Southern Biotech 1060-05) at a 1:10,000 dilution in blocking solution, 100 μl/well for 1 hour at room temperature. Plates were developed using 75 μl/well Bionostics TMB substrate and incubated for approximately 10 minutes. The developing reaction was stopped using Bionostics Red Stop solution (25 μl/well), and the optical density of the plates was read at 650nm.
After subtraction of the GST-peptide binding to plastic from P100 binding values, the binding of GST-PAX2 peptides were represented as a ratio of GST-HAX42 binding to P100, which was given the arbitrary value of 1.00. The following ratios were determined from binding to P100 of GST-peptides at a peptide concentration of 20 μg/ml. Bold denotes positive binding to the P100 membrane fraction.

Series [3] concerns P100 membrane fractions derived from Caco-2 cells. Briefly: Dansylated peptide ELISA: relative binding of PAX2 and HAX42 peptides to P100 (ratio to ZElan021). The following applies: PAX2 peptides, ratio to ZElan021 = 1.00. In short, it runs like this:
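P100 membrane fraction from Caco-2 cells (normally 100 μg/ml) coated in carbonate buffer pH9.6, blocked with 2% Marvel/PBS, then incubated with dansylated peptides. Detection via anti-mouse HRP conjugate and TMB, OD read at 650nm; binding expressed relative to ZElan021.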
A general note: In an ELISA, binding on a coated surface is turned into a signal by an enzyme label.

Series [4] relates to fixed Caco-2 or C2BBe1 cells. Kind of series: ELISA of GST fusion proteins on fixed Caco-2 or C2BBe1 cells. The series is classed as binding. As to the method: Fixed Caco-2, C2BBe1, and A431 cell plates were prepared by growing cells on tissue culture treated microtiter plates. When cells were confluent, plates were fixed with 10% formaldehyde, washed twice with PBS and stored with 0.5%BSA-PBS at −20° C. […] The standard ELISA procedure was followed at this point.
The standard ELISA procedure was modified as follows. GST proteins were diluted to an appropriate concentration in PBS containing lkBSA and 0.05% Tween20 (1%BPT), titered and incubated one hour at room temperature. Following five washes an anti-GST monoclonal antibody was added (Sigma, St. Louis Clone GST-2 diluted 1:10,000 in 1%BPT) and incubated one hour. After five more washes goat anti-mouse IgG2b-HRP was added (Southern Biotechnology Associates Inc., Birmingham, Ala., diluted 1:4000 in 1%BPT) and incubated one hour. After five washes plates were developed with TMB peroxidase substrate (Kirkegard and Perry, Gaithersburg, Md.). All data is presented with background binding subtracted.

Another series concerns intestinal tissue. Briefly: Preselected phage libraries, rat closed loop: absorption/internalization to intestinal tissue (hybridization autoradiograph). Format: in vivo.
Series [5] in a line: Isoelectric points of synthetic peptides. The series is classed as physicochemical.

Regarding `C[C@@H](O)[C@H](NC(=O)[C@@H](N)CCCCNS(=O)(=O)c1cccc2c(N(C)C)cccc12)C(=O)N[C@@H](CCCNC(=N)N)C(=O)N[C@@H](CCCCN)C(=O)N[C@@H](CO)C(=O)N[C@@H](CO)C(=O)N[C@H](CCCNC(=N)N)C(=O)N[C@@H](CO)C(=O)N[C@@H](CC(N)=O)C(=O)N1CCC[C@H]1C(=O)N[C@@H](CCCNC(=N)N)C(=O)NCC(=O)N[C@H](CCCNC(=N)N)C(=O)N[C@@H](CCCNC(=N)N)C(=O)N[C@@H](Cc1c[nH]cn1)C(=O)N1CCC[C@H]1C(=O)NCC(N)=O` [ZElan054, H2N—K(dns)TRKSSrSNPRGrRHPG—CONH2] (H-K(Dansyl)TRKSS[dR]SNPRG[dR]RHPG-NH2), in the series on fixed Caco-2 cells, the “inhibition of GST-P31 binding” value is recorded as “inhibited”. Further, in series [1], the “Rel. Stab.” value was 2; the fraction remaining at 1 min, 1 mg/ml is 97.4%; the fraction remaining at 1 h, 1 mg/ml is 58.2%; the amount remaining at 3 h, 1 mg/ml was 11.6%. The amount remaining at 24 h, 1 mg/ml in series [1] was 2.7%.

Consider gst-TNAKHSSHN [GST-113], for which, in series [2], the “Value (binding to P100 as ratio of GST-HAX42 binding)” value amounted to 0.26.

For the molecule gst-SSHNRRLRTR [GST-114], the “Value (binding to P100 as ratio of GST-HAX42 binding)” value in series [2] is on record as 0.17.

In the case of gst-RRLRTRSRPN [GST-115], the “Value (binding to P100 as ratio of GST-HAX42 binding)” value in series [2] was found to be 0.36.

For the molecule `CC(C)C[C@H](NC(=O)[C@H](CCCNC(=N)N)NC(=O)[C@H](CCCNC(=N)N)NC(=O)[C@H](CC(N)=O)NC(=O)[C@H](Cc1c[nH]cn1)NC(=O)[C@H](CO)NC(=O)[C@H](CO)NC(=O)[C@@H](N)CCCCNS(=O)(=O)c1cccc2c(N(C)C)cccc12)C(=O)N[C@@H](CCCNC(=N)N)C(=O)N[C@H](C(=O)N[C@@H](CCCNC(=N)N)C(N)=O)[C@@H](C)O` [ZElan035] (H-K(Dansyl)SSHNRRLRTR-NH2), the “Binding value at 20 μg/ml” value is on record as 0.12 in series [3] (first 20 μg/ml column) and 0.43 in series [3] (second 20 μg/ml column). Besides, the “Binding value at 50 μg/ml” value came to 0.81 in series [3] (first 50 μg/ml column) and 0.77 in series [3] (second 50 μg/ml column). Besides, the “inhibition of GST-PAX2 binding” value with fixed Caco-2 cells is reported as “inhibited”.

With gst-SRPYSVDSDSDTNAKHSSHNR [GST-105], the “Value (binding to P100 as ratio of GST-HAX42 binding)” value in series [2] is −0.08.

For the molecule gst-STPPSREAYSRPYSVDSDSD [GST-104], the “Value (binding to P100 as ratio of GST-HAX42 binding)” value in series [2] was 0.01.

Turning to `C[C@@H](O)[C@H](NC(=O)[C@@H](N)CCCCNS(=O)(=O)c1cccc2c(N(C)C)cccc12)C(=O)N[C@@H](CCCNC(=N)N)C(=O)N[C@@H](CCCCN)C(=O)N[C@@H](CO)C(=O)N[C@@H](CO)C(=O)N[C@@H](CCCNC(=N)N)C(=O)N[C@@H](CO)C(=O)N[C@@H](CC(N)=O)C(=O)N1CCC[C@H]1C(=O)N[C@@H](CCCNC(=N)N)C(=O)NCC(=O)N[C@@H](CCCNC(=N)N)C(=O)N[C@@H](CCCNC(=N)N)C(=O)N[C@@H](Cc1c[nH]cn1)C(=O)N1CCC[C@H]1C(=O)NCC(N)=O` [ZElan031] (H-K(Dansyl)TRKSSRSNPRGRRHPG-NH2), the “inhibition of GST-P31 binding” value with fixed Caco-2 cells was “inhibited”. For the same molecule, in series [1], the “Rel. Stab.” value was 3; the amount remaining at 1 min, 1 mg/ml was 100%; the share remaining at 1 h, 1 mg/ml was 38.7%; the amount remaining at 3 h, 1 mg/ml was 0%. Besides, the share remaining at 24 h, 1 mg/ml in series [1] was 0%.

Consider “gst-RGSTGTAGGERSGVLNLHTRDNASGSGFKPWYPSNRGHK [GST-5PAX5]”, for which, in series [4], the “binding to fixed Caco-2 or C2BBe1 cells relative to GST control” value is on record as “weak to moderate binding”.

Consider “RVGQCTDSDVRRPWARSCAHQGCGAGTRNSHGCITRPLRQASAH [Phage SNi10]”, for which the “found in the intestine samples or fractions” value in the series on intestinal tissue (hSI pool of phages) is on record as “found in the intestine samples or fractions”.

In the case of “gst-SPCGGGSWGRFMQGGLFGGRTDGCGAHRNRTSASLEPPSSDY [GST-SNi34]”, the “binding to fixed Caco-2 or C2BBe1 cells relative to GST control” value in series [4] is listed as “bound fixed Caco-2 or C2BBe1 cells”.

Turning to “STPPSREAYSRPYSVDSDSDTNAKHSSHNRRLRTRSRPN [PAX2]”, the “binding to the intestine / found in the intestine samples” value with intestinal tissue (hPEPT1 pool of phages) is recorded as “not found in the intestine samples”. Besides, in series [5], the pI stood at 11.26.
